Reference: PMC7531004, “Discovery of gramicidin A analogues with altered activities by multidimensional screening of a one-bead-one-compound library” (Nature Communications, 2020)
Where a SMILES comes first, the peptide text is derived from it. [ ]: non-standard residue; d: D form. The star is where a group is joined. NHCH2CH2OH = OCCN*; For = O=C*

Assays:
[1] = H+/Na+ transport assay of bead-derived peptides (one-point); format: biochemical; design: key: relative activity; mean of two control wells = 1.00; conditions: bead-derived peptide solution, EYPC/EYPG LUVs;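 further: relative to parent gramicidin A activity set to 1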
Method in brief: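 Miniaturized 96-well format. LUVs with entrapped pyranine (1.0 mM) were exposed to peptide for 30 min at RT. Intensities were expressed relative to full lysis by Triton X-100 and no treatment, with control-well mean = 1.00.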

[2] = test system: P388 mouse leukemia cells; conditions: 92 h
Method in brief: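 First, library peptide stocks are diluted 250-fold in RPMI1640 with 10% heat-inactivated FBS. Next, they are mixed with P388 cells to give 1 × 10^4 cells/mL and incubated 92 h at 37 °C, 5% CO2. Finally, viability (%) is scored by WST-1 absorbance at 415 nm.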

[3] = test system: Streptococcus pyogenes SSI-9; test: Antibacterial activity assay of bead-derived peptides (three concentrations); format: cell-based; design: key: +++: inhibition by the 640-fold diluted peptide solution; ++: inhibition by the 160-fold diluted solution; +: inhibition by the 40-fold diluted solution; -: no inhibition; conditions: S. pyogenes, bead-derived peptide solution, three concentrations
Method in brief: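 Bead-derived library peptide stocks in DMSO were tested undiluted and after 4- and 16-fold DMSO dilution against S. pyogenes SSI-9 (2 × 10^5 CFU/well) in cation-adjusted Mueller Hinton Broth with 5% laked horse blood. After 18 h at 37 °C, wells were scored for precipitation of grown cells.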

Row | Compound | H+/Na+ transport activity normalized against the value of 1 (1.00) [1] | cell viability/% [2] [%] | antibacterial activity [3]
1 | CC(C)C[C@@H](NC(=O)[C@H](C)NC(=O)CNC(=O)[C@@H](NC=O)C(C)C)C(=O)N[C@@H](C)C(=O)N[C@@H](C(=O)N[C@H](C(=O)N[C@@H](C(=O)N[C@@H](Cc1c[nH]c2ccccc12)C(=O)N[C@@H](C(=O)N[C@@H](Cc1c[nH]c2ccccc12)C(=O)N[C@H](CC(C)C)C(=O)N[C@@H](Cc1c[nH]c2ccccc12)C(=O)N[C@@H](C(=O)N[C@@H](Cc1c[nH]c2ccccc12)C(=O)NCCO)C(C)C)C(C)C)C(C)C)C(C)C)C(C)C [compound 4884] (For-VGA[dL]A[dV]V[dV]W[dV]W[dL]W[dV]W-NHCH2CH2OH) | 1.27 | 49.1 | ++
2 | CC(C)C[C@@H](NC(=O)[C@H](Cc1c[nH]c2ccccc12)NC(=O)[C@H](NC(=O)[C@@H](NC(=O)[C@H](NC(=O)[C@H](C)NC(=O)[C@H](NC(=O)[C@H](C)NC(=O)CNC(=O)[C@@H](NC=O)C(C)C)C(C)C)C(C)C)C(C)C)[C@H](C)O)C(=O)N[C@@H](Cc1c[nH]c2ccccc12)C(=O)N[C@@H](C(=O)N[C@@H](Cc1c[nH]c2ccccc12)C(=O)N[C@@H](C(=O)N[C@@H](Cc1c[nH]c2ccccc12)C(=O)NCCO)C(C)C)C(C)C [compound 8596] (For-VGA[dV]A[dV]V[dT]W[dL]W[dV]W[dV]W-NHCH2CH2OH) | 1.07 | 56.2 | -
3 | CC(C)C[C@@H](NC(=O)[C@H](C)NC(=O)CNC(=O)[C@@H](NC=O)C(C)C)C(=O)N[C@@H](C)C(=O)N[C@@H](C(=O)N[C@H](C(=O)N[C@H](CC(C)C)C(=O)N[C@@H](Cc1c[nH]c2ccccc12)C(=O)N[C@H](CC(C)C)C(=O)N[C@@H](Cc1c[nH]c2ccccc12)C(=O)N[C@@H](C(=O)N[C@@H](Cc1c[nH]c2ccccc12)C(=O)N[C@H](CC(C)C)C(=O)N[C@@H](Cc1c[nH]c2ccccc12)C(=O)NCCO)[C@H](C)O)C(C)C)C(C)C [compound 11425] (For-VGA[dL]A[dV]V[dL]W[dL]W[dT]W[dL]W-NHCH2CH2OH) | 1.12 | 41.5 | +
4 | CC(C)C[C@@H](NC(=O)[C@H](C)NC(=O)CNC(=O)[C@@H](NC=O)C(C)C)C(=O)N[C@@H](C)C(=O)N[C@H](CC(C)C)C(=O)N[C@H](C(=O)N[C@@H](C(=O)N[C@@H](Cc1c[nH]c2ccccc12)C(=O)N[C@@H](C(=O)N[C@@H](Cc1c[nH]c2ccccc12)C(=O)N[C@H](CC(C)C)C(=O)N[C@@H](Cc1c[nH]c2ccccc12)C(=O)N[C@H](CC(C)C)C(=O)N[C@@H](Cc1c[nH]c2ccccc12)C(=O)NCCO)[C@H](C)O)C(C)C)C(C)C [compound 8342] (For-VGA[dL]A[dL]V[dV]W[dT]W[dL]W[dL]W-NHCH2CH2OH) | 1.00 | 54.5 | -
5 | CC(C)C[C@@H](NC(=O)[C@H](C)NC(=O)[C@H](NC(=O)[C@H](C)NC(=O)CNC(=O)[C@@H](NC=O)C(C)C)C(C)C)C(=O)N[C@H](C(=O)N[C@@H](C(=O)N[C@@H](Cc1c[nH]c2ccccc12)C(=O)N[C@H](CC(C)C)C(=O)N[C@@H](Cc1c[nH]c2ccccc12)C(=O)N[C@@H](C(=O)N[C@@H](Cc1c[nH]c2ccccc12)C(=O)N[C@@H](C(=O)N[C@@H](Cc1c[nH]c2ccccc12)C(=O)NCCO)C(C)C)C(C)C)[C@H](C)O)C(C)C [compound 4126] (For-VGA[dV]A[dL]V[dT]W[dL]W[dV]W[dV]W-NHCH2CH2OH) | 1.06 | 100.0 | -
6 | CC(C)C[C@@H](NC(=O)[C@H](C)NC(=O)CNC(=O)[C@@H](NC=O)C(C)C)C(=O)N[C@@H](C)C(=O)N[C@H](CC(C)C)C(=O)N[C@H](C(=O)N[C@@H](C(=O)N[C@@H](Cc1c[nH]c2ccccc12)C(=O)N[C@@H](C(=O)N[C@@H](Cc1c[nH]c2ccccc12)C(=O)N[C@@H](C(=O)N[C@@H](Cc1c[nH]c2ccccc12)C(=O)N[C@@H](C(=O)N[C@@H](Cc1c[nH]c2ccccc12)C(=O)NCCO)C(C)C)C(C)C)C(C)C)C(C)C)C(C)C [compound 10536] (For-VGA[dL]A[dL]V[dV]W[dV]W[dV]W[dV]W-NHCH2CH2OH) | 1.21 | 100.0 | +
7 | CC(C)C[C@@H](NC(=O)[C@H](C)NC(=O)[C@H](NC(=O)[C@H](C)NC(=O)CNC(=O)[C@@H](NC=O)C(C)C)C(C)C)C(=O)N[C@H](C(=O)N[C@H](CC(C)C)C(=O)N[C@@H](Cc1c[nH]c2ccccc12)C(=O)N[C@H](CC(C)C)C(=O)N[C@@H](Cc1c[nH]c2ccccc12)C(=O)N[C@@H](C(=O)N[C@@H](Cc1c[nH]c2ccccc12)C(=O)N[C@H](CC(C)C)C(=O)N[C@@H](Cc1c[nH]c2ccccc12)C(=O)NCCO)[C@H](C)O)C(C)C [compound 4209] (For-VGA[dV]A[dL]V[dL]W[dL]W[dT]W[dL]W-NHCH2CH2OH) | 1.33 | 96.2 | -
8 | CC(C)C[C@@H](NC(=O)[C@H](C)NC(=O)CNC(=O)[C@@H](NC=O)C(C)C)C(=O)N[C@@H](C)C(=O)N[C@@H](C(=O)N[C@H](C(=O)N[C@H](CC(C)C)C(=O)N[C@@H](Cc1c[nH]c2ccccc12)C(=O)N[C@@H](C(=O)N[C@@H](Cc1c[nH]c2ccccc12)C(=O)N[C@H](CC(C)C)C(=O)N[C@@H](Cc1c[nH]c2ccccc12)C(=O)N[C@H](CC(C)C)C(=O)N[C@@H](Cc1c[nH]c2ccccc12)C(=O)NCCO)C(C)C)C(C)C)C(C)C [compound 8464] (For-VGA[dL]A[dV]V[dL]W[dV]W[dL]W[dL]W-NHCH2CH2OH) | 1.23 | 4.1 | -
9 | CC(C)C[C@@H](NC(=O)[C@H](Cc1c[nH]c2ccccc12)NC(=O)[C@@H](CC(C)C)NC(=O)[C@H](Cc1c[nH]c2ccccc12)NC(=O)[C@H](NC(=O)[C@H](Cc1c[nH]c2ccccc12)NC(=O)[C@@H](CC(C)C)NC(=O)[C@@H](NC(=O)[C@H](NC(=O)[C@H](C)NC(=O)[C@H](NC(=O)[C@H](C)NC(=O)CNC(=O)[C@@H](NC=O)C(C)C)C(C)C)C(C)C)C(C)C)C(C)C)C(=O)N[C@@H](Cc1c[nH]c2ccccc12)C(=O)NCCO [compound 12538] (For-VGA[dV]A[dV]V[dL]W[dV]W[dL]W[dL]W-NHCH2CH2OH) | 1.01 | 2.1 | -
10 | CC(C)C[C@@H](NC(=O)[C@H](C)NC(=O)[C@H](NC(=O)[C@H](C)NC(=O)CNC(=O)[C@@H](NC=O)C(C)C)[C@H](C)O)C(=O)N[C@H](C(=O)N[C@H](CC(C)C)C(=O)N[C@@H](Cc1c[nH]c2ccccc12)C(=O)N[C@@H](C(=O)N[C@@H](Cc1c[nH]c2ccccc12)C(=O)N[C@@H](C(=O)N[C@@H](Cc1c[nH]c2ccccc12)C(=O)N[C@H](CC(C)C)C(=O)N[C@@H](Cc1c[nH]c2ccccc12)C(=O)NCCO)C(C)C)C(C)C)C(C)C [compound 9145] (For-VGA[dT]A[dL]V[dL]W[dV]W[dV]W[dL]W-NHCH2CH2OH) | 1.03 | 70.9 | -
